Assay results: ChEMBL document CHEMBL4613209, “Quinolone hybrids and their anti-cancer activities: An overview” (Eur J Med Chem, 2019)

What was measured:
[1] = test system: NCI-H460; assay: Cytotoxicity against human NCI-H460 cells assessed as reduction in cell viability; assay type: functional, cell-based
[2] = test system: GES1; assay: Cytotoxicity against human GES-1 cells assessed as reduction in cell viability; assay type: cell-based
[3] = test system: PC-3; assay: Cytotoxicity against human PC3 cells assessed as reduction in cell viability; assay type: functional, cell-based
[4] = test system: MGC-803; assay: Cytotoxicity against human MGC803 cells assessed as reduction in cell viability; assay type: functional, cell-based
[5] = test system: MCF7; assay: Cytotoxicity against human MCF7 cells assessed as reduction in cell viability; assay type: functional, cell-based
[6] = test system: SW-620; assay: Cytotoxicity against human SW620 cells assessed as reduction in cell viability; assay type: functional, cell-based
[7] = test system: HepG2; assay: Cytotoxicity against human HepG2 cells assessed as reduction in cell viability; assay type: functional, cell-based
[8] = test system: A-431; assay: Cytotoxicity against human A431 cells assessed as reduction in cell viability by MTT assay; assay type: functional, cell-based
[9] = test system: MCF7; assay: Cytotoxicity against human MCF7 cells assessed as reduction in cell viability by MTT assay; assay type: functional, cell-based
[10] = test system: SK-MEL3; assay: Cytotoxicity against human SK-MEL-3 cells assessed as reduction in cell viability by MTT assay; assay type: functional, cell-based
[11] = test system: SW480; assay: Cytotoxicity against human SW480 cells assessed as reduction in cell viability by MTT assay; assay type: functional, cell-based
[12] = test system: EJ; assay: Cytotoxicity against human EJ cells assessed as reduction in cell viability by MTT assay; assay type: functional, cell-based

SMILES	IC50 [1] [nM]	IC50 [2] [nM]	IC50 [3] [nM]	IC50 [4] [nM]	IC50 [5] [nM]	IC50 [6] [nM]	IC50 [7] [nM]	IC50 [8] [nM]	IC50 [9] [nM]	IC50 [10] [nM]	IC50 [11] [nM]	IC50 [12] [nM]
C[C@H]1COc2c(N3CCN(C)CC3)c(F)cc3c(=O)c(-c4nnc(NC(=O)CCCCC(=O)O)s4)cn1c23	1100 to 14300	> 81500	1100 to 14300	1100 to 14300	1100 to 14300	1100 to 14300	1100 to 14300					
C[C@H]1COc2c(N3CCN(C)CC3)c(F)cc3c(=O)c(-c4nnc(NC(=O)CCCCCCCCC(=O)NO)s4)cn1c23	19 to 127	> 81500	19 to 127	19 to 127	19 to 127	19 to 127	19 to 127					
O=C(CN1CCN(c2cc3c(cc2F)c(=O)c(C(=O)O)cn3C2CC2)CC1)c1cccs1								2000 to 131000	2000 to 131000	2000 to 131000	2000 to 131000	2000 to 131000
C[C@H]1COc2c(N3CCN(C)CC3)c(F)cc3c(=O)c(-c4nnc(NC(=O)CCCCCCCC(=O)O)s4)cn1c23	1100 to 14300	> 81500	1100 to 14300	1100 to 14300	1100 to 14300	1100 to 14300	1100 to 14300					
C[C@H]1COc2c(N3CCN(C)CC3)c(F)cc3c(=O)c(-c4nnc(NC(=O)CCCCCC(=O)O)s4)cn1c23	1100 to 14300	> 81500	1100 to 14300	1100 to 14300	1100 to 14300	1100 to 14300	1100 to 14300					
C[C@H]1COc2c(N3CCN(C)CC3)c(F)cc3c(=O)c(-c4nnc(NC(=O)CCCC(=O)NO)s4)cn1c23	19 to 127	> 81500	19 to 127	19 to 127	19 to 127	19 to 127	19 to 127					
CCn1cc(C(=O)O)c(=O)c2cc(F)c(N3CCN(CC(=O)c4cccs4)CC3)nc21								2000 to 131000	2000 to 131000	2000 to 131000	2000 to 131000	2000 to 131000
CCn1cc(C(=O)O)c(=O)c2cc(F)c(N3CCN(CC(=O)c4cccs4)CC3)cc21								2000 to 131000	2000 to 131000	2000 to 131000	2000 to 131000	2000 to 131000
CCn1cc(C(=O)O)c(=O)c2cc(F)c(N3CCN(C/C(=N/O)c4ccc(Cl)s4)CC3)nc21								≤ 20000	≤ 20000	≤ 20000	≤ 20000	≤ 20000
CCn1cc(C(=O)O)c(=O)c2cc(F)c(N3CCN(C/C(=N/OCc4ccccc4)c4cccs4)CC3)cc21								2000 to 131000	2000 to 131000	2000 to 131000	2000 to 131000	2000 to 131000
CCn1cc(C(=O)O)c(=O)c2cc(F)c(N3CCN(C/C(=N/OCc4ccccc4)c4cccs4)CC3)nc21								2000 to 131000	2000 to 131000	2000 to 131000	2000 to 131000	2000 to 131000
CCn1cc(C(=O)O)c(=O)c2cc(F)c(N3CCN(C/C(=N/OC)c4cccs4)CC3)nc21								2000 to 131000	2000 to 131000	2000 to 131000	2000 to 131000	2000 to 131000
CCn1cc(C(=O)O)c(=O)c2cc(F)c(N3CCN(C/C(=N/O)c4cccs4)CC3)nc21								2000 to 131000	2000 to 131000	2000 to 131000	2000 to 131000	2000 to 131000
O=C(CN1CCN(c2cc3c(cc2F)c(=O)c(C(=O)O)cn3C2CC2)CC1)c1ccc(Cl)s1								≥ 100000	≥ 100000	≥ 100000	≥ 100000	≥ 100000
CCn1cc(C(=O)O)c(=O)c2cc(F)c(N3CCN(C/C(=N/OCc4ccccc4)c4ccc(Cl)s4)CC3)cc21								≤ 20000	≤ 20000	≤ 20000	≤ 20000	≤ 20000
C[C@H]1COc2c(N3CCN(C)CC3)c(F)cc3c(=O)c(-c4nnc(NC(=O)CCCCCCC(=O)NO)s4)cn1c23	600 to 3100	> 100000	600 to 3100	600 to 3100	600 to 3100	600 to 3100	600 to 3100					
C[C@H]1COc2c(N3CCN(C)CC3)c(F)cc3c(=O)c(-c4nnc(NC(=O)CCCCCCCCC(=O)Nc5ccccc5N)s4)cn1c23	46 to 203	> 81500	46 to 203	46 to 203	46 to 203	46 to 203	46 to 203					
C[C@H]1COc2c(N3CCN(C)CC3)c(F)cc3c(=O)c(-c4nnc(NC(=O)CCCCCCC(=O)O)s4)cn1c23	1100 to 14300	> 81500	1100 to 14300	1100 to 14300	1100 to 14300	1100 to 14300	1100 to 14300					
C[C@H]1COc2c(N3CCN(C)CC3)c(F)cc3c(=O)c(-c4nnc(NC(=O)CCCCCCCC(=O)Nc5ccccc5N)s4)cn1c23	46 to 203	> 81500	46 to 203	46 to 203	46 to 203	46 to 203	46 to 203					
C[C@H]1COc2c(N3CCN(C)CC3)c(F)cc3c(=O)c(-c4nnc(NC(=O)CCCCC(=O)NO)s4)cn1c23	19 to 127	> 81500	19 to 127	19 to 127	19 to 127	19 to 127	19 to 127					
CCn1cc(C(=O)O)c(=O)c2cc(F)c(N3CCN(C/C(=N/OC)c4cccs4)CC3)cc21								2000 to 131000	2000 to 131000	2000 to 131000	2000 to 131000	2000 to 131000
C[C@H]1COc2c(N3CCN(C)CC3)c(F)cc3c(=O)c(-c4nnc(NC(=O)CCCCCCCCC(=O)O)s4)cn1c23	1100 to 14300	> 81500	1100 to 14300	1100 to 14300	1100 to 14300	1100 to 14300	1100 to 14300					
CCn1cc(C(=O)O)c(=O)c2cc(F)c(N3CCN(CC(=O)c4ccc(Cl)s4)CC3)nc21								≥ 100000	≥ 100000	≥ 100000	≥ 100000	≥ 100000
CCn1cc(C(=O)O)c(=O)c2cc(F)c(N3CCN(C/C(=N/OCc4ccccc4)c4ccc(Cl)s4)CC3)nc21								≤ 20000	≤ 20000	≤ 20000	≤ 20000	≤ 20000
C[C@H]1COc2c(N3CCN(C)CC3)c(F)cc3c(=O)c(-c4nnc(NC(=O)CCCCCC(=O)Nc5ccccc5N)s4)cn1c23	46 to 203	> 81500	46 to 203	46 to 203	46 to 203	46 to 203	46 to 203					
CCn1cc(C(=O)O)c(=O)c2cc(F)c(N3CCN(CC(=O)c4ccc(Cl)s4)CC3)cc21								≥ 100000	≥ 100000	≥ 100000	≥ 100000	≥ 100000
O=C(O)c1cn(C2CC2)c2cc(N3CCN(C/C(=N/O)c4ccc(Cl)s4)CC3)c(F)cc2c1=O								≤ 20000	≤ 20000	≤ 20000	≤ 20000	≤ 20000
CO/N=C(/CN1CCN(c2cc3c(cc2F)c(=O)c(C(=O)O)cn3C2CC2)CC1)c1ccc(Cl)s1								≤ 20000	≤ 20000	≤ 20000	≤ 20000	≤ 20000
CCn1cc(C(=O)O)c(=O)c2cc(F)c(N3CCNCC3)nc21 [ENOXACIN]								137000 to 238000	137000 to 238000	137000 to 238000	137000 to 238000	137000 to 238000
CCn1cc(C(=O)O)c(=O)c2cc(F)c(N3CCN(C/C(=N/O)c4ccc(Cl)s4)CC3)cc21								≤ 20000	≤ 20000	≤ 20000	≤ 20000	≤ 20000
